Values quoted from earlier work in publication PMC7927942 (Journal of chemical information and modeling, 2020).

Biological target: wild-type JAK2 JH2 (Homo sapiens, UniProt O60674)
Conditions: benchmark ligand from high-throughput screen

Chain of wild-type JAK2 JH2 (O60674 545-809 limits assumed): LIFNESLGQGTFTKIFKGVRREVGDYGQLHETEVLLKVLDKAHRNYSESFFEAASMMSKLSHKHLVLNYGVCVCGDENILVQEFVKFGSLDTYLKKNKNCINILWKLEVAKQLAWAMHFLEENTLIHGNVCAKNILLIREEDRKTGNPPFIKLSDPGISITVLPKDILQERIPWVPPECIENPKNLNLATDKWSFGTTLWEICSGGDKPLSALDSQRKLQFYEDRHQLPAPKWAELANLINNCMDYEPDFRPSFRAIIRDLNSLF

## O=C(Nc1nc2cccc(-c3ccc(CN4CCS(=O)(=O)CC4)cc3)n2n1)C1CC1 [filgotinib]
  % binding at 50 μM: 9%
